Reference: patent US20100221197A1, “ANTIMICROBIAL AGENT AND EXTERNAL PREPARATION FOR SKIN CONTAINING THE SAME” (TAIYO CORPORATION, priority 2007, published 2010)
≈ marks a conversion by molar mass, not a printed value. Like-named read-outs stand apart in the source and are kept apart here.

Experiments:
[1] = system: Corynebacterium xerosis (JCM 1971); assay: Antimicrobial test, growth inhibition minimum concentration; type: cell-based; conditions: C. xerosis(JCM1971)
Experimental: (§1) 0.5 mL of a previously sterilized medium (brand name: Brain Heart Infusion Liquid Medium supplied by Nihon Pharmaceutical Co., Ltd.) was added into a 96-well deep type microplate, and 0.5 mL of ricinoleic acid monoglyceride or diglycerine ricinoleic acid monoester of the present invention (synthesized in “1. Synthesis Example of ricinoleic acid monoglyceride” and “2. Synthesis Example of diglycerine ricinoleic acid monoester,” respectively) was added thereto and serially prepared so that the final concentration in the medium was 3 ppm, 6 ppm, 12 ppm, 25 ppm, 50 ppm, 100 ppm, 200 ppm and 400 ppm. 0.1 mL of each cultured bacterial medium of Corynebacterium xerosis (JCM 1971) or Staphylococcus aureus (JCM 2151) at approximately 1×10^8CFU/mL was added to this sample solution, stirred, and then cultured at 37° C. under an aerobic condition for 24 hours. The antimicrobial effect was visually determined, and compared with test plots in which the microorganism had not been added. The test plot in which no turbidity due to growth of the microorganism was observed was determined as the test plot having the antimicrobial effect, and the lowest concentration required for inhibiting the growth of the microorganism (hereinafter referred to as a “growth inhibition minimum concentration”) was measured. As a Comparative Example, the growth inhibition minimum concentration of 4-isopropyl-3-methylphenol known as the antimicrobial agent having a broad antimicrobial spectrum was measured in the same way as in the above. The growth inhibition minimum concentrations of ricinoleic acid monoglyceride and diglycerine ricinoleic acid monoester of the present invention (synthesized in “1. Synthesis Example of ricinoleic acid monoglyceride” and “2. Synthesis Example of diglycerine ricinoleic acid monoester,” respectively) for the 9 indicator bacterial species shown in Table 2 were measured in the same way as in “3. Antimicrobial test” described above.

[2] = system: Staphylococcus aureus (JCM 2151); assay: as above; type: cell-based; conditions: S. aureus(JCM2151); for MIC: Staphylococcus aureus, read-out: minimum inhibitory concentration
Experimental: as §1

S. mutans(JCM5175) = assay: as above; type: cell-based, Streptococcus mutans; conditions: for minimum inhibitory concentration: Table 2
Experimental: as §1

S. epidermidis(JCM2414) = assay: as above; type: cell-based, Staphylococcus epidemidis; conditions: for minimum inhibitory concentration: Table 2
Experimental: as §1

B. subtile(JCM2151) = assay: as above; type: cell-based, Bacillus subtilis; conditions: Table 2
Experimental: as §1

B. cereus(JCM2152) = assay: as above; type: cell-based, Bacillus cereus; conditions: for minimum inhibitory concentration: Table 2
Experimental: as §1

[3] = system: L. monocytogenes(JCM7671); assay: as above; type: cell-based, Listeria monocytogenes; conditions: for minimum inhibitory concentration: Table 2
Experimental: as §1

E. coli(JCM1649) = assay: as above; type: cell-based, Escherichia coli; conditions: for antimicrobial activity against Escherichia coli: statement in words from Table 2
Experimental: as §1

[4] = system: Propionibacterium acnes (JCM 6425); assay: Antimicrobial test, growth inhibition minimum concentration (anaerobic); type: cell-based; conditions: Table 1, P. acnes(JCM6425), 37° C., 48 hours
Experimental: 0.5 mL of the previously sterilized medium (brand name: Brain Heart Infusion Liquid Medium supplied by Nihon Pharmaceutical Co., Ltd.) was added to a 96-well deep type microplate, and 0.5 mL of ricinoleic acid monoglyceride or diglycerine ricinoleic acid monoester of the present invention (synthesized in “1. Synthesis Example of ricinoleic acid monoglyceride” and “2. Synthesis Example of diglycerine ricinoleic acid monoester,” respectively) was added thereto and serially prepared so that the final concentration in the medium was 3 ppm, 6 ppm, 12 ppm, 25 ppm, 50 ppm, 100 ppm, 200 ppm and 400 ppm. 0.1 mL of a cultured bacterial medium of Propionibacterium acnes (JCM 6425) at approximately 1×10^8CFU/mL was added to this sample solution, and cultured at 37° C. under an anaerobic condition using a deoxidizer for 48 hours. The antimicrobial effect was visually determined, and the growth inhibition minimum concentration was measured. As a Comparative Example, the growth inhibition minimum concentration of 4-isopropyl-3-methylphenol known as the antimicrobial agent having a broad antimicrobial spectrum was measured in the same way as in the above.

P. gingivalis(JCM8525) = assay: Antimicrobial test, growth inhibition minimum concentration; type: cell-based, Porphyromonas gingivalis; conditions: Table 2
Experimental: as §1

[5] = system: Staphylococcus aureus (JCM 2151); assay: Microbicidal test for Staphylococcus aureus; type: cell-based; conditions: FIG. 1; for retention time for reducing the number of bacteria to 1/1000 or less: 200 ppm sample in 0.2 M phosphate buffer (pH7.0), aerobic
Experimental: Ricinoleic acid monoglyceride synthesized in “1. Synthesis Example of ricinoleic acid monoglyceride” was added to a 0.2 M phosphate buffer (pH7.0) to prepare a 200 ppm sample. 0.1 mL of Staphylococcus aureus (JCM 2151) at approximately 1×10^8CFU/mL was added to 5 mL of the sample. While being kept under the aerobic condition, the bacterial sample was taken at 0, 5, 10, 30, 60 and 120 minutes after the addition, and the number of survival bacteria in the sample was counted at each retention time. Specifically, using a Brain Heart Infusion agar medium, the sample was serially diluted, cultured using a flat plate smear method at 37° C. for 48 hours, and then the number of bacteria was counted. As a comparative control, 4-isopropyl-3-methylphenol was simultaneously evaluated in the same way as in the above.

[6] = system: Propionibacterium acnes (JCM 6425); assay: Microbicidal test for Propionibacterium acnes; type: cell-based; conditions: FIG. 2; for retention time for reducing the number of bacteria to 1/100 or less: 200 ppm sample in 0.2 M phosphate buffer (pH7.0), anaerobic
Experimental: Ricinoleic acid monoglyceride synthesized in “1. Synthesis Example of ricinoleic acid monoglyceride” was added to a 0.2 M phosphate buffer (pH7.0) to prepare a 200 ppm sample. 0.1 mL of Propionibacterium acnes (JCM 6425) at approximately 1×10^8CFU/mL was added to 5 mL of the sample. While being kept under the anaerobic condition, the bacterial sample was taken at 0, 5, 10, 30, 60 and 120 minutes after the addition, and the number of survival bacteria in the sample was counted at each retention time. Specifically, using a GAM agar medium, the sample was serially diluted, cultured using the flat plate smear method at 37° C. under the anaerobic condition for 4 days, and then the number of bacteria was counted. As the comparative control, 4-isopropyl-3-methylphenol was simultaneously evaluated in the same way as in the above.

[7] = Compounding property in external preparations for skin; type: physicochemical
Experimental: Hyaluronic acid, ethanol, glycerine and ricinoleic acid monoglyceride were mixed, and then purified water was added to obtain a skin lotion.
Squalane, jojoba oil, bees wax and sorbitan sesquioleate were mixed, heated to 70° C. and dissolved (this was a mixture A). On the other hand, xanthan gum, 1,3-butylene glycol, ethanol and ricinoleic acid monoglyceride were mixed at room temperature (this was a mixture B). Subsequently, the mixture A and the mixture B were mixed, heated to 60° C., and added little by little to the purified water in which the N-palm oil fatty acid acyl L-arginine ethyl-DL-pyrrolidone carboxylate salt had been added, and vigorously stirring to emulsify to obtain a milky lotion.
Squalane, stearic acid, bees wax, stearyl alcohol and ricinoleic acid monoglyceride were mixed, heated to 70° C. and dissolved. The N-palm oil fatty acid acyl L-arginine ethyl-DL-pyrrolidone carboxylate salt and the purified water were added little by little to these heated and dissolved oil-based ingredients, and these were stirred well to obtain a cream.

[8] = Table 1, 37° C., aerobic, 24 hours

| Structure (SMILES) | minimum inhibitory concentration ([1]; Table 2) | minimum inhibitory concentration ([2]; Table 2) | minimum inhibitory concentration (S. mutans(JCM5175)) | minimum inhibitory concentration (S. epidermidis(JCM2414)) | minimum inhibitory concentration (B. subtile(JCM2151)) | minimum inhibitory concentration (B. cereus(JCM2152)) | minimum inhibitory concentration [3] | minimum inhibitory concentration (E. coli(JCM1649); Table 2, E. coli(JCM1649)) | minimum inhibitory concentration (P. gingivalis(JCM8525)) | other results |
| --- | --- | --- | --- | --- | --- | --- | --- | --- | --- | --- |
| CCCCCCCCCCCC(=O)OCC(O)COCC(O)CO (stereo not drawn) [diglycerin lauric acid monoester] | 200 ppm | 50 ppm | 50 ppm | 100 ppm | 100 ppm | 100 ppm | 200 ppm | >400 ppm | – | – |
| CCCCCCC(O)CC=CCCCCCCCC(=O)OCC(O)COCC(O)CO (stereo not drawn) [diglycerin ricinoleic acid monoester, diglycerine ricinoleic acid monoester] | 25 ppm | 50 ppm | 50 ppm | 50 ppm | 50 ppm | 50 ppm | 50 ppm | >400 ppm | – | minimum inhibitory concentration [1, 8]: 50 ppm; minimum inhibitory concentration [2, 8]: 50 ppm; minimum inhibitory concentration [4]: 100 ppm; antimicrobial activity against Escherichia coli (E. coli(JCM1649)): did not exhibit antimicrobial activity |
| CCCCCCCCCCCCCC(=O)OCC(O)COCC(O)CO (stereo not drawn) [diglycerin myristic acid monoester] | 100 ppm | 50 ppm | 50 ppm | >400 ppm | 25 ppm | – | – | >400 ppm | – | – |
| CCCCCC[C@@H](O)C/C=C\CCCCCCCC(=O)OCC(O)CO (stereo partly drawn) [ricinoleic acid monoglyceride] | 25 ppm | 25 ppm | 25 ppm | 25 ppm | 25 ppm | 12.5 ppm | 25 ppm | >400 ppm | 6 ppm | minimum inhibitory concentration [1, 8]: 25 ppm; minimum inhibitory concentration [2, 8]: 25 ppm; minimum inhibitory concentration [4]: 50 ppm; antimicrobial activity against Escherichia coli (E. coli(JCM1649)): did not exhibit antimicrobial activity; retention time for reducing the number of bacteria to 1/1000 or less [5]: ≤ 10 min; retention time for reducing the number of bacteria to 1/100 or less [6]: ≤ 5 min; compounding property: mixing with the other ingredients ([7]; cream, 2.0% by weight): mixed very well; blending property: mixing with the other ingredients ([7]; milky lotion, 1.0% by weight): immediately mixed; compounding property: mixing with the other ingredients ([7]; skin lotion, 0.5% by weight): easily mixed |
| CCCCCCCCCCCCCC(=O)OCC(O)CO (stereo not drawn) [myristic acid monoglyceride] | 400 ppm | 400 ppm | 100 ppm | >400 ppm | >400 ppm | 400 ppm | 200 ppm | >400 ppm | 50 ppm | – |
| CCCCCCCCCCCC(=O)OCC(O)CO (stereo not drawn) [lauric acid monoglyceride] | 100 ppm | 50 ppm | 25 ppm | 25 ppm | 25 ppm | 25 ppm | 25 ppm | >400 ppm | 13 ppm | – |
| Cc1cc(O)ccc1C(C)C [4-isopropyl-3-methyl phenol, 4-isopropyl-3-methylphenol] | – | – | – | – | – | – | – | – | – | MIC ([1]; Corynebacterium xerosis, Table 1, 37° C., aerobic, 24 hours, read-out: minimum inhibitory concentration): 200 µg/mL (≈ 1330 µM); MIC [2, 8]: 200 µg/mL (≈ 1330 µM); MIC ([2]; Table 2): 200 µg/mL (≈ 1330 µM); MIC ([4]; Cutibacterium acnes, read-out: minimum inhibitory concentration): 200 µg/mL (≈ 1330 µM); MIC (S. mutans(JCM5175); Streptococcus mutans, Table 2, read-out: minimum inhibitory concentration): 200 µg/mL (≈ 1330 µM); MIC (S. epidermidis(JCM2414); Staphylococcus epidermidis, Table 2, read-out: minimum inhibitory concentration): 200 µg/mL (≈ 1330 µM); MIC (B. cereus(JCM2152); Bacillus cereus, Table 2, read-out: minimum inhibitory concentration): 200 µg/mL (≈ 1330 µM); MIC ([3]; Listeria monocytogenes, Table 2, read-out: minimum inhibitory concentration): 200 µg/mL (≈ 1330 µM); MIC (E. coli(JCM1649); Escherichia coli, Table 2, E. coli(JCM1649), read-out: minimum inhibitory concentration): 400 µg/mL (≈ 2660 µM); retention time for reducing the number of bacteria to 1/1000 or less [5]: 30 min; microbicidal action for 10 minutes ([5]; 200 ppm, retention time 10 minutes): weak; retention time for reducing the number of bacteria to 1/100 or less [6]: 10 min; microbicidal action for 5 minutes ([6]; 200 ppm, retention time 5 minutes): weak |
